Columns and labels:
[1] = Physical stability study (proton NMR after exposure to air at room temperature); type: physicochemical
From the text: FIG. 1: Proton NMR spectrum of magnesium bis-lysinate bis-EPA taken on the day the compound was synthesized (upper trace) and 60-days later (lower trace) with the compound having been exposed to air at room temperature for the entire 60-day period.
The compounds of the invention are remarkably stable compared to omega-3 polyunsaturated free fatty acids, which typically show evidence of oxidative degradation with hours of exposure to atmospheric oxygen. […] The upper tracing in FIG. 1 is a proton NMR spectrum of magnesium bis-lysinate bis-EPA taken on the day the compound was synthesized. The lower tracing is the NMR taken 60-days later with the compound having been exposed to air at room temperature for the entire period.

[2] = single dose, oral pharmacokinetic study in rats (total EPA plasma levels); type: in vivo
From the text: The results of a single dose, oral pharmacokinetic study in rats for a compound of Formula III (designated TP-252, Mg-Lys2-EPA2) are shown in Table 1 below. One of the parameters shown in Table 1 is the area under the curve (AUC), which is the integral of a plot of concentration of drug in blood plasma against time. The AUC is proportional to the total amount of the active pharmaceutical agent (API) that reaches the blood circulation. In this example, the API (or analyte) is EPA. AUC and Cmax are given for the compound of Formula III, EPA free fatty acid (EPA FFA), and EPA ethyl ester (EPA EE). EPA ethyl ester is the FDA-approved form of EPA.

CC/C=C\C/C=C\C/C=C\C/C=C\C/C=C\CCCC(=O)O.CC/C=C\C/C=C\C/C=C\C/C=C\C/C=C\CCCC(=O)O.NCCCC[C@H](N)C(=O)[O-].NCCCC[C@H](N)C(=O)[O-].[Mg+2] [TP-252, magnesium bis-lysinate bis-EPA dihydrate]
proton NMR evidence of oxidation or degradation ([1]; after 60 days exposed to air at room temperature versus day of synthesis): no evidence of oxidation or degradation by other mechanisms
time chemically stable ([1]; room temperature, exposed to air): at least 60 days
EPA delivered to the blood plasma versus equivalent doses of EPA free fatty acid or EPA ethyl ester [2]: delivers significantly more EPA to the blood plasma
Baseline and EPA Molar Dose Equivalent Adjusted Cmax of Total EPA in plasma ([2]; total dose 40.0 mg/kg, analyte EPA, Cmax minus predose level, multiplied by EPA molar dose adjustment factor): 13.2 µg/mL
Baseline and EPA Molar Dose Equivalent Adjusted AUC0-18 hrs of Total EPA in plasma ([2]; total dose 40.0 mg/kg, analyte EPA, baseline adjusted and multiplied by EPA molar dose adjustment factor): 133 µg·h/mL
